Data reported in patent US11505548B2, “Heterocyclic compounds and their use for treatment of helminthic infections and diseases” (Celgene Corporation, priority 2019, dated 2022).
Like-named read-outs stand apart in the source and are kept apart here.

Legend:
[1] = test system: Onchocerca gutturosa Adult Male Worms; experiment: Onchocerciasis in vitro screening model, worm motility score; format: cell-based; settings: read-out: O. gutturosa activity level (IC50 or MED)
[2] = test system: L. sigmodontis microfilariae; experiment: Parasite motility assay, L. sigmodontis microfilariae; format: cell-based, Litomosoides sigmodontis; settings: in vitro motility, active at compound concentrations below 1 μM
[3] = test system: L. sigmodontis adult worms; experiment: Parasite motility assay, adult L. sigmodontis; format: cell-based, Litomosoides sigmodontis; settings: in vitro motility, active at compound concentrations below 1 μM
[4] = test system: B. pahangi adult worms; experiment: Parasite motility assay, adult B. pahangi; format: cell-based, Brugia pahangi; settings: in vitro motility, active at compound concentrations below 1 μM
Procedure: Parasite Motility Assays. Adult and microfilariae B. malayi and B. pahangi parasites, harvested from infected jirds, were procured from the NIAID/NIH Filariasis Research Reagent Resource Center (FR3). […] (Athens, Ga.). Adult worms were plated in 24-well plates with 2 mL of Advanced RPMI 1640 medium (Invitrogen) supplemented with 25 mM HEPES, 2 mM L-Glutamine (Invitrogen), 100 U/mL Penicillin (Invitrogen), 100 µg/mL Streptomycin (Invitrogen), […] Amphotericin B solution (Invitrogen), and 5% heat inactivated fetal bovine serum and placed in a 37° C. humidified incubator with 5% CO2. After 24 h, adult worms were selected based upon motility as described below. After scoring for motility, 4-6 highly motile worms were selected for each treatment group and were transferred to new plates. Microfilariae were centrifuged at 5000×g for 5 min, and re-suspended in 2 ml of media. Microfilarial density was determined using a hemocytometer and were plated in a 96-well plate at 80 microfilariae/well with 200 μL of complete media. Treatment groups received compounds (0.1% DMSO) at 1 μM and 100 nM with 0.1% DMSO as a vehicle control. Cultures were incubated at 37° C. in a humidified incubator with 5% CO2. […] The motility of the worms and microfilariae were evaluated every 24 h and analyzed by a one sided unpaired Student's t-test using Microsoft Excel. […]

[5] = Onchocerca gutturosa, Table 1 O. gutturosa, levels A/B/C, motility or MTT readout not specified
[6] = in vitro, Onchocerca gutturosa adult male worms, class A/B/C

`Cc1cccnc1Nc1nc(-c2cc(C(F)(F)F)c(OCC3CC3)cn2)ns1` [Compound 110, 3-(5-(cyclo-propylmethoxy)-4-(trifluoromethyl)pyridin-2-yl)-N-(3-methyl-pyridin-2-yl)-1,2,4-thiadiazol-5-amine] was tested, and the IC50 [1, 5] was < 0.2 µM.
With `CC(C)Oc1cnc(-c2nsc(Nc3ncccc3C(F)(F)F)n2)cc1C(N)=O` [Compound 220, 5-isopropoxy-2-(5-(3-(trifluoromethyl)pyridin-2-ylamino)-1,2,4-thiadiazol-3-yl)isonico-tinamide] the IC50 [1, 6] was 0.2 to 0.5 µM.
`CN1CCC(Oc2ccc(Nc3nc(-c4ccccn4)ns3)nc2)CC1` [Compound 11, N-(5-(1-methyl-piperidin-4-yloxy)pyridin-2-yl)-3-(pyridin-2-yl)-1,2,4-thiadiazol-5-amine] gave an IC50 [1, 5] of 0.5 to 5 µM.
For `Cc1cccnc1Nc1nc(-c2ccc3c(n2)CN(CC2CC2)C3)ns1` [Compound 114, 3-(6-(cyclo-propylmethyl)-6,7-dihydro-5H-pyrrolo[3,4-b]pyridin-2-yl)-N-(3-methylpyridin-2-yl)-1,2,4-thiadiazol-5-amine], the IC50 [1, 5] was 0.5 to 5 µM.
In the case of “2-(3-(5-isoprop- oxypyridin-2- yl)-1,2,4- thiadiazol-5- ylamino)-N,N- dimethyl-5- (trifluoromethyl) nicotinamide [Compound 250]”, the “L. sigmodontis activity against microfilaria (level D)” value [2] is reported as “D (activity against microfilaria at compound concentrations below 1 μM (activity level D))”, the “L. sigmodontis activity against adult filaria (level E)” value [3] is reported as “E (activity against adult filaria at compound concentrations below 1 μM (activity level E))” and the “B. pahangi activity against adult filaria (level E)” value [4] is reported as “E (activity against adult filaria at compound concentrations below 1 μM (activity level E))”. For the same compound, the IC50 [1, 6] was 0.5 to 5 µM.
With `CC(C)Oc1ccc(-c2nsc(Nc3ncc(C(=O)NC4CC(F)(F)C4)cc3C(C)C)n2)nc1` [Compound 195, N-(3,3-difluoro-cyclobutyl)-6-(3-(5-isoprop-oxypyridin-2-yl)-1,2,4-thiadiazol-5-ylamino)-5-isopropyl-nicotinamide] the IC50 [1, 5] was < 0.2 µM.
